Measured values from EP0462621A2, “Use of particular compounds for manufacture of pharmaceutical formulations for treatment against various parasites, mycoplasmas, other indications and other infections” (Prendergast, Patrick Thomas, priority 1990, dated 1991).

Legend:
[1] = tested on: T.b. brucei, T.b. gambiense and T.b. rhodesiense; test: Procyclic trypomastigote (TRY) in-vitro screen; format: cell-based; also: key: - no/poor activity,; + fair/moderate activity,; ++ good/excellent activity
Method: Primary screening for new trypanocides has made extensive use of rodent systems, in which host survival time is a simple indicator of drug activity. In-vitro screens have used a variety of trypomastigote types (see Table 3, below). […] Most early in-vitro screens employed a short test in which bloodstream trypomastigotes were isolated from an infected rodent and maintained for up to 24 h in a simple drug-containing media. Two significant modifications of this technique include maintaining isolated bloodstream trypomastigotes in drug-containing media for 3-4 hours at 37° C in micro-titre plates and their subsequent viability assessed by the uptake of radiolabelled precursors or motility and infectivity to mice.
(§1) In-vitro and in-vivo models were used to test activities of a selection of many compounds. Those activities are summarized in Tables 1-3, showing variation between systems and species. Activities measured in the MP mo and HM mo models have shown the best correlation with results obtained in hamster and mouse models.

[2] = tested on: L donovani; test: Amastigotes (AM) in cell lines, in-vitro; format: cell-based; conditions: Ld., Amastigote; also: key: - no/poor activity,; + fair/moderate activity,; ++ good/excellent activity
Excerpt: (§2) Amastigotes of Leishmania can be cultivated in a wide range of mammalian cells, some of which may be used in in-vitro screens. These include (1) a Sticker dog sarcoma (fibroblast) cell line, (2) transformed rodent macrophage cell lines, (3) primary isolated mouse peritoneal macrophages (MP mo), and (4) human monocyte-derived macrophages (HM mo). The methods are similar for all models. Amastigote or promastigote infected cells are maintained in a medium containing the drug for 4-7 days, at 37 C for L. donovani and 33-35 C for L. major and L. mexicana. Drug activity is then assessed by counting (I) the number of infected host cells and/or (II) the number of amastigotes/100 host cells.
as §1

[3] = tested on: L major/L mexicana; test: Amastigotes (AM) in cell lines, in-vitro; format: cell-based; conditions: Lm., Amastigote; also: key: - no/poor activity,; + fair/moderate activity,; ++ good/excellent activity
Excerpt: as §2, §1

[4] = tested on: H9-HIV-1 cells; test: Cytotoxicity in persistently infected H9-HIV-1 cells, viable cell number; format: cell-based, human; conditions: 30 u.M and lower; up to 30 days
[5] = tested on: herpes simplex type 1 (HSV-1); test: M413 cells, HSV-1; format: cell-based; conditions: M413 cell line of human fibroblasts
Method: A procedure similar to that described for Experiment la(g) was followed except herpes simplex virus- type I (HSV-I) was used.
The experiments were performed in duplicate M413 cells which were set up in Titer-Tek slides (4 well, glass) and those that were confluent within one day were used in experiments. Within 24-48 hours, cell densities were checked to ensure sufficiency to proceed with infection. Stock HSV-1 was serially diluted in 10-fold steps (1, 10^-1, 10-^2, 10-^3, 10-^4) to provide 2 ml of each dilution: 0.2/1.8 ml diluent to finally yield overall dilutions of approximately 10^-1, 10^-2, 10-^3, 10^-4, 10-^5. Virus absorption was allowed for 90 minutes at 37 °C, after which time the inoculum was removed and replaced with solutions containing IPA at the concentrations as indicated in Table la(j). The slide was incubated for 3 days and stained with the following antisera: monoclonal antibody (MAB) to HSV-1 virus capsid antigen (VCA) at 1:20; control mores IgG at 1:20.

[6] = tested on: CAEV; test: Experiment la(c): Himalayan Tahr ovary cells, CAEV, p28 radioimmunoassay; format: cell-based, caprine arthritis encephalitis virus (CAEV); conditions: as read from Figure 15
Excerpt: A procedure similar to that followed in Experiment la (a) was followed using Himalayan Tahr ovary cells exposed to caprine arthritis encephalitis virus (CAEV), a lentivirus related to HIV-1 which causes leukoen- cephalitis and arthritis in goats. A radioimmunoassay to detect CAEV p28 was used to determine the presence of the virus.

CC(C)=CCNc1ncnc2c1ncn2[C@@H]1O[C@H](CO)[C@@H](O)[C@H]1O [IPA, N^6-(Δ^2-isopentenyl) adenosine]
activity, procyclic TRY [1]: +
Activity, AM in cell lines [2]: -
Activity, AM in cell lines [3]: +
cytotoxicity, viable cell number [4]: No cytotoxicity
in-vitro levels of herpes simplex type 1 (HSV-1) [5]: reduces
IC50 [6]: 8 µM
IC90 [6]: 30 µM
